From ChEMBL document CHEMBL1145498, “A systematic interaction map of validated kinase inhibitors with Ser/Thr kinases” (Proc Natl Acad Sci U S A, 2007)

Experiments:
[1] = molecular target: Serine/threonine-protein kinase PAK 4 (Homo sapiens) (UniProt O96013)
[2] = molecular target: Serine/threonine-protein kinase VRK2 (Homo sapiens) (UniProt Q86Y07)
[3] = molecular target: Serine/threonine-protein kinase 10 (Homo sapiens) (UniProt O94804)
[4] = molecular target: Ribosomal protein S6 kinase alpha-3 (Homo sapiens) (UniProt P51812)
[5] = molecular target: Serine/threonine-protein kinase 25 (Homo sapiens) (UniProt O00506)
[6] = molecular target: STE20-like serine/threonine-protein kinase (Homo sapiens) (UniProt Q9H2G2)
[7] = molecular target: Casein kinase I isoform gamma-1 (Homo sapiens) (UniProt Q9HCP0)
[8] = molecular target: T1, Serine/threonine-protein kinase Nek2 (Homo sapiens) (UniProt P51955)
T1 sequence (whole entry): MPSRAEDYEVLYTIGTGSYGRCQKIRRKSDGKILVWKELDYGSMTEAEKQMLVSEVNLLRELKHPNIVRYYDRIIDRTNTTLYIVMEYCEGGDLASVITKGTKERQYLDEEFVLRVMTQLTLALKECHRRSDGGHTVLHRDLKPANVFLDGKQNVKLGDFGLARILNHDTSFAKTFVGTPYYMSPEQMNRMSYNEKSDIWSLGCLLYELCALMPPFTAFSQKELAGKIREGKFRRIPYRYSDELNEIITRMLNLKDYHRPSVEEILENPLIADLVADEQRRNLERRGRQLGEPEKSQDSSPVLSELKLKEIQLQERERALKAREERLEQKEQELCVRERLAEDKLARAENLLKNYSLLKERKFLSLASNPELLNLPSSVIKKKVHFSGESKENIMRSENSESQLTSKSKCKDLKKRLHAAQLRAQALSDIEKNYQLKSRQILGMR

[9] = molecular target: Casein kinase I isoform gamma-2 (Homo sapiens) (UniProt P78368)
[10] = molecular target: Serine/threonine-protein kinase pim-1 (Homo sapiens) (UniProt P11309)
[11] = molecular target: Serine/threonine-protein kinase pim-3 (Homo sapiens) (UniProt Q86V86)
[12] = molecular target: T2, Serine/threonine-protein kinase VRK3 (Homo sapiens) (UniProt Q8IV63)
T2 sequence (whole entry): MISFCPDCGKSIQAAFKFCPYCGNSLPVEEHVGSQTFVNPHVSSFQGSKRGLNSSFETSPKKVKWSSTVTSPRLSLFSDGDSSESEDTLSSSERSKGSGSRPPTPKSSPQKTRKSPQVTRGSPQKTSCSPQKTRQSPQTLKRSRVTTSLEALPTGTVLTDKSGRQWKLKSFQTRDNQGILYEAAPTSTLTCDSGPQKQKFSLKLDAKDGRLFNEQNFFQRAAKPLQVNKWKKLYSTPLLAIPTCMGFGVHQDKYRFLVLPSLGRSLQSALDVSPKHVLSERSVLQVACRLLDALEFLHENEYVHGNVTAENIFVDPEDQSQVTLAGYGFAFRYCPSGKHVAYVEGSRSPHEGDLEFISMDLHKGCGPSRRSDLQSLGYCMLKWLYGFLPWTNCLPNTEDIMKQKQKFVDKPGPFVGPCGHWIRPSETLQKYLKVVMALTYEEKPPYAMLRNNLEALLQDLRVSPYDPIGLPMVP

[13] = molecular target: Serine/threonine-protein kinase pim-2 (Homo sapiens, UniProt Q9P1W9)
[14] = molecular target: Mitogen-activated protein kinase 6 (Homo sapiens) (UniProt Q16659)
[15] = molecular target: Cyclin-dependent kinase 16 (Homo sapiens) (UniProt Q00536)
[16] = molecular target: Cyclin-dependent kinase 2 (Homo sapiens, UniProt P24941)
[17] = molecular target: T3, Serine/threonine-protein kinase 17A (Homo sapiens) (UniProt Q9UEE5)
T3 sequence (whole entry): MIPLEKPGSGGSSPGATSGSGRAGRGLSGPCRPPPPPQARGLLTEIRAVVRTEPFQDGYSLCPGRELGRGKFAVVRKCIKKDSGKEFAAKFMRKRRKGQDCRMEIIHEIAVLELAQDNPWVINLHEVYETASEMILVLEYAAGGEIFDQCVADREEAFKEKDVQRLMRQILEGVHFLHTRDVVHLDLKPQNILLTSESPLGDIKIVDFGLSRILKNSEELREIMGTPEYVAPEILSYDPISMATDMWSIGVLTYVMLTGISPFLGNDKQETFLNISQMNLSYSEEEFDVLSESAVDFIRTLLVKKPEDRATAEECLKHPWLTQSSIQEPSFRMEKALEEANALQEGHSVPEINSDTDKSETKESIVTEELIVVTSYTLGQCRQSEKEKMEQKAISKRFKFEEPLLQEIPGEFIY

Sequence of Serine/threonine-protein kinase VRK2 (Homo sapiens) (Q86Y07 whole entry): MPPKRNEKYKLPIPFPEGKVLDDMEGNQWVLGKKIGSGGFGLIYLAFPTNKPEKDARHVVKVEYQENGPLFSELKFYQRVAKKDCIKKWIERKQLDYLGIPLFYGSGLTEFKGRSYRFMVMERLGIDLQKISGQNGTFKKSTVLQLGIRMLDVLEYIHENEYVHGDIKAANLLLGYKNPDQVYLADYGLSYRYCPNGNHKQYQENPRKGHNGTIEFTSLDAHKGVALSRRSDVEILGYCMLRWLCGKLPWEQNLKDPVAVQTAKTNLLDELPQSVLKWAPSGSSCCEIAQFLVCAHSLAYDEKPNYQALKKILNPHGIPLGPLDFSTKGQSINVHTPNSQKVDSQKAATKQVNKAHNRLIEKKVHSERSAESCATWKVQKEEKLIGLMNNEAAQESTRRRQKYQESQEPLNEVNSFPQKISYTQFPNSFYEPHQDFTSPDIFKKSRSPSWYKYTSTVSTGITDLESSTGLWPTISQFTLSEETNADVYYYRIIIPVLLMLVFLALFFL
Sequence of Casein kinase I isoform gamma-1 (Homo sapiens) (Q9HCP0 whole entry, looked up, canonical isoform): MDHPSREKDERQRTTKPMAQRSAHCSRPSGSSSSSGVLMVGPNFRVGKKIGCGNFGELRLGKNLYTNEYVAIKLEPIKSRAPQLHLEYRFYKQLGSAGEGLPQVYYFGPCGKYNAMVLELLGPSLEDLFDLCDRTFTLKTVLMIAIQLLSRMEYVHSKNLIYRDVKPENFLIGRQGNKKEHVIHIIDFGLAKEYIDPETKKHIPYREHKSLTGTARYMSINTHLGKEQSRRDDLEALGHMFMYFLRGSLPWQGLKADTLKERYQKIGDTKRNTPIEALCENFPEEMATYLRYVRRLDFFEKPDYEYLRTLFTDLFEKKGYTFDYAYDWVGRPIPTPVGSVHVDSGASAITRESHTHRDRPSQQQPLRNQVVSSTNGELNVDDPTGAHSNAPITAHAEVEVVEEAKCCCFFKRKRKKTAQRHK
Sequence of Serine/threonine-protein kinase PAK 4 (Homo sapiens) (O96013 whole entry, looked up): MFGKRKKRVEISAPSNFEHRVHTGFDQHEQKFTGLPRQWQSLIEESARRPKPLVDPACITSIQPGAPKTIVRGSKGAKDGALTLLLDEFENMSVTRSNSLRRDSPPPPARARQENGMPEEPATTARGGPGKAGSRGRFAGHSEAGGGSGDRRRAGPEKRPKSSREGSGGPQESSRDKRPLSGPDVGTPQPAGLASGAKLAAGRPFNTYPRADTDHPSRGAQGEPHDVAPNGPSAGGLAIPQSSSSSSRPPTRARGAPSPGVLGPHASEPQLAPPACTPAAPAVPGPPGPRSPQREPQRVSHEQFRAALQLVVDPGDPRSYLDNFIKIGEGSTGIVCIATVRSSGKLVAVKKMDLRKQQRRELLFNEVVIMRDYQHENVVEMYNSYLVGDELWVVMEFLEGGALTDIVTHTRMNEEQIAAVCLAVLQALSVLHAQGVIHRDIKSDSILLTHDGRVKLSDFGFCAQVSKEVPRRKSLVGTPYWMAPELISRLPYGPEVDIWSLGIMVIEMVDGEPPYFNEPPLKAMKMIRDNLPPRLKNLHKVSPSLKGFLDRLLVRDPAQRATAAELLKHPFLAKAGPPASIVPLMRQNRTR
Sequence of Serine/threonine-protein kinase pim-1 (Homo sapiens) (P11309 whole entry, looked up): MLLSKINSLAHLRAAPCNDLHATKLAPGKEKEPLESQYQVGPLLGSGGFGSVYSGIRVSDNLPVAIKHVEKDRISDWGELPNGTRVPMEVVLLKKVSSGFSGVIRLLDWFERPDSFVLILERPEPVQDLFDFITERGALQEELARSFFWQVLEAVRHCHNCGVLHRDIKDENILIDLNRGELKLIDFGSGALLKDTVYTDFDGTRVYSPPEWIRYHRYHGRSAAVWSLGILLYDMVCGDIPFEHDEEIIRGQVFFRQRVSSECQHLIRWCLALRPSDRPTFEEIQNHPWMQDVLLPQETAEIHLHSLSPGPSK
Sequence of Casein kinase I isoform gamma-2 (Homo sapiens) (P78368 whole entry, looked up, canonical isoform): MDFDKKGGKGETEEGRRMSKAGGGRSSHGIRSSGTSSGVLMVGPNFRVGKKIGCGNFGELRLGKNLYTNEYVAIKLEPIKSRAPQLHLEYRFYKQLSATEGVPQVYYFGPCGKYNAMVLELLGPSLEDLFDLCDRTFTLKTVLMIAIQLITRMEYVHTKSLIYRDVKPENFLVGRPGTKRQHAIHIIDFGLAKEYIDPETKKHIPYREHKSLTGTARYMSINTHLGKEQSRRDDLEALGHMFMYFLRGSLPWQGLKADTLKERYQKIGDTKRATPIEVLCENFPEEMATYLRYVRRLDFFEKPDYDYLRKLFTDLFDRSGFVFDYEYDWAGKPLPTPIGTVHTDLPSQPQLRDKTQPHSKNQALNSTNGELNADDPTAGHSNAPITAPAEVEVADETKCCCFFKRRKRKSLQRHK
Sequence of Serine/threonine-protein kinase 25 (Homo sapiens) (O00506 whole entry, looked up): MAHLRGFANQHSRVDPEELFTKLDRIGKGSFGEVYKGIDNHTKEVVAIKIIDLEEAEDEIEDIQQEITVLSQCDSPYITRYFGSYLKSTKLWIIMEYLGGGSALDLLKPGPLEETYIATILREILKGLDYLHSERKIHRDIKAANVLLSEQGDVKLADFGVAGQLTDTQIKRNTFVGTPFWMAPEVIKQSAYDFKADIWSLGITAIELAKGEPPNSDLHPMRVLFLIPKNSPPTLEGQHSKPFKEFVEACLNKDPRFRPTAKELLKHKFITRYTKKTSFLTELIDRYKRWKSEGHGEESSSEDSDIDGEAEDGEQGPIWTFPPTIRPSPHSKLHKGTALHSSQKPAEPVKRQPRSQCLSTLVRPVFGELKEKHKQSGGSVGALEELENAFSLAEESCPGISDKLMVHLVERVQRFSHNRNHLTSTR
Sequence of STE20-like serine/threonine-protein kinase (Homo sapiens) (Q9H2G2 whole entry, looked up, canonical isoform): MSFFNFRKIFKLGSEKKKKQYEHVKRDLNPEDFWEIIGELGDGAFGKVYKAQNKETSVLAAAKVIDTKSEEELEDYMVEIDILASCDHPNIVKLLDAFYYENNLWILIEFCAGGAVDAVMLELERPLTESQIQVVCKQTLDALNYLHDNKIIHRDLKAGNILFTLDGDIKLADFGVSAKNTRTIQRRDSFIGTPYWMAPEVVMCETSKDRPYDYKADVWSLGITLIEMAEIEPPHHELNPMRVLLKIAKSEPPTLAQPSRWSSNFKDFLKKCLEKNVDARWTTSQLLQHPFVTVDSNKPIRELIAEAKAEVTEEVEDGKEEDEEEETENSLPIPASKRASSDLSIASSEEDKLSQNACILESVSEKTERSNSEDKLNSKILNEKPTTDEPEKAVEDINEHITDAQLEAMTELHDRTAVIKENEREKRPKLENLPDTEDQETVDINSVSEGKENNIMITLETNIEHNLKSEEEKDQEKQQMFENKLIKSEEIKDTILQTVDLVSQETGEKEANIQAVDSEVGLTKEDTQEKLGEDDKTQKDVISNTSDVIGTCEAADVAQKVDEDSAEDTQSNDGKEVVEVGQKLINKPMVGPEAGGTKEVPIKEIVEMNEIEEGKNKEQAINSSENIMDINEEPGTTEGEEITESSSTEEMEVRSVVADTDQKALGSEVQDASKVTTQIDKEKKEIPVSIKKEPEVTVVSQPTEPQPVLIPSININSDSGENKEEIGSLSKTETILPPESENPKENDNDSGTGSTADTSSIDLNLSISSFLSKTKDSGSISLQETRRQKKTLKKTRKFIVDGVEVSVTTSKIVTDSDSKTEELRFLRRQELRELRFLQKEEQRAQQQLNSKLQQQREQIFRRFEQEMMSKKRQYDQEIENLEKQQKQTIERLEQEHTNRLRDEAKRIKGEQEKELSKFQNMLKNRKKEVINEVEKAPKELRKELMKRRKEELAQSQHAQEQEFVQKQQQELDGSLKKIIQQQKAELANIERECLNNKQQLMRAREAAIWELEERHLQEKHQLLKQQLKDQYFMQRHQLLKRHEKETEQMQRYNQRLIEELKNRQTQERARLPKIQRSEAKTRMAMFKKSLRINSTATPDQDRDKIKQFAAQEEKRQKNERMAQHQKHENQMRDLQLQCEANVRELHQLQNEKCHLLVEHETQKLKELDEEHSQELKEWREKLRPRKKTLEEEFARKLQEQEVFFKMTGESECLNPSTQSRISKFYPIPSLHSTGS
Sequence of Cyclin-dependent kinase 16 (Homo sapiens) (Q00536 whole entry): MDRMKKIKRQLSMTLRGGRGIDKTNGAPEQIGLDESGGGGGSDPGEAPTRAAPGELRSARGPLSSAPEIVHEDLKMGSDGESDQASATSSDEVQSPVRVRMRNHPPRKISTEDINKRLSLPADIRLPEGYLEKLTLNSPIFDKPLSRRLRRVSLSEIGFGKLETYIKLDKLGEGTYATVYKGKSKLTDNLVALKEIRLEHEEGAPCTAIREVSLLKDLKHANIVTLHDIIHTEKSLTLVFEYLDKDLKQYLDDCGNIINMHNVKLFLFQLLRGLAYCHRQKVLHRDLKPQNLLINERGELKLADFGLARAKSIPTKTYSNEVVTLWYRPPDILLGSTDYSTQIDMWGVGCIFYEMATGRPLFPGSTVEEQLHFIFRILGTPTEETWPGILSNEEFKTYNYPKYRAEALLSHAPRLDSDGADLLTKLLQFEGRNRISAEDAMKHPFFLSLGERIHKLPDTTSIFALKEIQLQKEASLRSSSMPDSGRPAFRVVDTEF
Sequence of Serine/threonine-protein kinase pim-2 (Q9P1W9 whole entry, looked up): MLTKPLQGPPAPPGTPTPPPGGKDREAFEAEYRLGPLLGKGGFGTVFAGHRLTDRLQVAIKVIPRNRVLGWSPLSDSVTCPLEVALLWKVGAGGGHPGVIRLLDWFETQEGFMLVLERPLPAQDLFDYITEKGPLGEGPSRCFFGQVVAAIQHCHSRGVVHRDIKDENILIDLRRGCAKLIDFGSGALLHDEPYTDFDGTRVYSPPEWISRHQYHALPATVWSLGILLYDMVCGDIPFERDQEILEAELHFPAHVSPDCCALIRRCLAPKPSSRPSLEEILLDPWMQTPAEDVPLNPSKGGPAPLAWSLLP

Row | Structure (SMILES) | ΔTm [1] [°C] | ΔTm [2] [°C] | ΔTm [3] [°C] | ΔTm [4] [°C] | ΔTm [5] [°C] | ΔTm [6] [°C] | ΔTm [7] [°C] | ΔTm [8] [°C] | ΔTm [9] [°C] | ΔTm [10] [°C] | ΔTm [11] [°C] | ΔTm [12] [°C] | ΔTm [13] [°C] | ΔTm [14] [°C] | ΔTm [15] [°C] | ΔTm [16] [°C] | ΔTm [17] [°C]
1 | O=S(=O)(NCCNC/C=C/c1ccc(Br)cc1)c1cccc2cnccc12 | 1 | 0.1 | -0.4 | 2.2 | 1 | 1.6 | 0.6 | -0.2 | 0.1 | -0.2 | 1 | 0.2 | -0.3 | 0.4 | 0.7 | -0.5 | 1.7
2 | O=C1Nc2ccc(I)cc2/C1=C1/Nc2ccccc2/C1=N\O | 2.3 | 4.3 | 0 | 2.7 | 3.2 | 3.7 | 1.5 | 1.4 | 1.9 | 1.7 | 6.3 | 0.4 | -0.5 | 0.5 | 5.6 | 6.8 | 7
3 | Cc1cncc2cccc(S(=O)(=O)N3CCCNC[C@@H]3C)c12 | 0.7 | 1.2 | 3.5 | 2.4 | 1.1 | 2.9 | 0 | -0.2 | 0.6 | 0.7 | 0.8 | 0.4 | 0.7 | 0 | -0.6 | 0.7 | 2
4 | Oc1cccc(-c2nc(N3CCOCC3)c3oc4ncccc4c3n2)c1 | 0.7 | 0.4 | -0.4 | 0.1 | -0.6 | 0.3 | 0.4 | 0.5 | 0.1 | -0.4 | 0.6 | 0.2 | 0.1 | 0.5 | -0.1 | 0.4 | 1.5
5 | O=[N+]([O-])c1ccc(-c2nc(-c3ccc(F)cc3)c(-c3ccncc3)[nH]2)cc1 | 0.1 | 1.5 | 5.9 | 1.8 | 0.9 | 5.4 | 3 | -0.5 | 1.7 | -1.2 | 0.7 | 0.4 | 0.5 | 0.4 | -0.9 | 1.8 | 0.6
6 | COC1=C2C[C@@H](C)C[C@H](OC)[C@H](O)[C@@H](C)/C=C(\C)[C@H](OC(N)=O)[C@@H](OC)/C=C\C=C(/C)C(=O)NC(=CC1=O)C2=O | -0.2 | 0.2 | 0.5 | 0.2 | -0.6 | 1.7 | 0.5 | 0.5 | 0.4 | -0.2 | 0.5 | -0.7 | -0.1 | 0.1 | -0.4 | 0.5 | 0.3
7 | N#C/C(=C\c1ccc(O)c(O)c1)C(=O)NCc1ccccc1 | -0.1 | 0.2 | 0.7 | 0.6 | -0.4 | 2.9 | 0.4 | 0.7 | 0.7 | 2.1 | 3.1 | -0.2 | 1.9 | 0.4 | -0.6 | 0.9 | 4.4
